Results reported in PubChem BioAssay (NCI).
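In this assay, cells in 96-well plates receive the compound at five concentrations for 48 hours. Endpoints are linearly interpolated between the surrounding concentrations. GI50 = concentration required for 50% inhibition of growth. The concentration for full growth arrest is given as TGI.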

Tests used:
Assay in all cases: growth of human tumour cells (NCI), 48 h
[1] = system: ACHN renal
[2] = system: RPMI-8226 leukemia
[3] = system: UACC-257 melanoma
[4] = system: MOLT-4 leukemia
[5] = system: T-47D breast
[6] = system: SR leukemia
[7] = system: M14 melanoma
[8] = system: OVCAR-3 ovarian
[9] = system: SW-620 colon
[10] = system: MDA-MB-435
[11] = system: COLO 205 colon
[12] = system: BT-549 breast
[13] = system: HCT-116 colon
[14] = system: MALME-3M melanoma
[15] = system: UACC-62 melanoma
[16] = system: NCI-H460 lung
[17] = system: LOX IMVI melanoma
[18] = system: SK-MEL-5 melanoma
[19] = system: A549 NSCLC
[20] = system: SNB-75 CNS
[21] = system: NCI-H226 lung
[22] = system: UO-31 renal
[23] = system: SN12C renal
[24] = system: 786-0 renal
[25] = system: NCI/ADR-RES ovarian
[26] = system: DU-145 prostate
[27] = system: IGROV1 ovarian
[28] = system: HS 578T breast
[29] = system: SK-MEL-28 melanoma
[30] = system: RXF 393 renal
[31] = system: CCRF-CEM leukemia
[32] = system: EKVX NSCLC
[33] = system: OVCAR-5 ovarian
[34] = system: SK-OV-3 ovarian
[35] = system: MDA-MB-231 breast
[36] = system: CAKI-1 renal
[37] = system: A498 renal
[38] = system: PC-3 prostate
[39] = system: K-562 leukemia
[40] = system: NCI-H522 lung
[41] = system: MCF7 breast
[42] = system: SF-268 CNS
[43] = system: U251 CNS
[44] = system: HT29 colon
[45] = system: SK-MEL-2 melanoma
[46] = system: OVCAR-4 ovarian
[47] = system: SF-295 CNS
[48] = system: SF-539 CNS
[49] = system: TK-10 renal
[50] = system: HOP-62 NSCLC
[51] = system: OVCAR-8 ovarian
[52] = system: HCT-15 colon
[53] = system: HCC-2998 colon
[54] = system: KM12 colon
[55] = system: HOP-92 NSCLC
[56] = system: SNB-19 CNS

Q: How did the GI50 [1] turn out when `COc1ccc(C2C(C#N)=C(N)Oc3c2sc2ccc(C)cc32)cc1` (configuration not stated) was run?
A: 6.44 µM

Q: And the TGI [1]?
A: > 100 µM

Q: What about the GI50 [2] of the same molecule?
A: 3.95 µM

Q: And the TGI [2]?
A: > 100 µM

Q: And the GI50 [3]?
A: 4.03 µM

Q: What about the TGI [3] of the same molecule?
A: > 100 µM

Q: And the GI50 [4]?
A: 3.63 µM

Q: And the TGI [4]?
A: > 100 µM

Q: And the GI50 [5]?
A: 3.13 µM

Q: And the TGI [5]?
A: > 100 µM

Q: And the GI50 [6]?
A: 2.42 µM

Q: And the TGI [6]?
A: > 100 µM

Q: What about the GI50 [7] of the same molecule?
A: 2.84 µM

Q: And the TGI [7]?
A: 14.6 µM

Q: What about the GI50 [8] of the same molecule?
A: 3.71 µM

Q: And the TGI [8]?
A: > 100 µM

Q: What about the GI50 [9] of the same molecule?
A: 2.81 µM

Q: What about the TGI [9] of the same molecule?
A: > 100 µM

Q: And the GI50 [10]?
A: 0.568 µM

Q: And the TGI [10]?
A: 2.17 µM

Q: And the GI50 [11]?
A: 3.7 µM

Q: And the TGI [11]?
A: > 100 µM

Q: And the GI50 [12]?
A: 2.7 µM

Q: What about the TGI [12] of the same molecule?
A: 7.68 µM

Q: And the GI50 [13]?
A: 3.68 µM

Q: What about the TGI [13] of the same molecule?
A: 83.9 µM

Q: What about the GI50 [14] of the same molecule?
A: 3.56 µM

Q: And the TGI [14]?
A: 62.3 µM

Q: And the GI50 [15]?
A: 3.26 µM

Q: What about the TGI [15] of the same molecule?
A: 49.9 µM

Q: What about the GI50 [16] of the same molecule?
A: 3.41 µM

Q: What about the TGI [16] of the same molecule?
A: 18.3 µM

Q: And the GI50 [17]?
A: 5.92 µM

Q: What about the TGI [17] of the same molecule?
A: > 100 µM

Q: And the GI50 [18]?
A: 10.7 µM

Q: And the TGI [18]?
A: > 100 µM

Q: What about the GI50 [19] of the same molecule?
A: 6.94 µM

Q: What about the TGI [19] of the same molecule?
A: > 100 µM

Q: What about the GI50 [20] of the same molecule?
A: 1.9 µM

Q: What about the TGI [20] of the same molecule?
A: 5.51 µM

Q: And the GI50 [21]?
A: 3.92 µM

Q: And the TGI [21]?
A: 57.5 µM

Q: And the GI50 [22]?
A: 3.56 µM

Q: And the TGI [22]?
A: > 100 µM

Q: What about the GI50 [23] of the same molecule?
A: 4.46 µM

Q: What about the TGI [23] of the same molecule?
A: > 100 µM

Q: What about the GI50 [24] of the same molecule?
A: 3.64 µM

Q: And the TGI [24]?
A: 15.1 µM

Q: What about the GI50 [25] of the same molecule?
A: 3.34 µM

Q: And the TGI [25]?
A: > 100 µM

Q: And the GI50 [26]?
A: 7.08 µM

Q: What about the TGI [26] of the same molecule?
A: > 100 µM

Q: What about the GI50 [27] of the same molecule?
A: 4.64 µM

Q: And the TGI [27]?
A: > 100 µM

Q: What about the GI50 [28] of the same molecule?
A: 3.31 µM

Q: What about the TGI [28] of the same molecule?
A: 36.8 µM

Q: And the GI50 [29]?
A: 5.86 µM

Q: And the TGI [29]?
A: > 100 µM

Q: And the GI50 [30]?
A: 2.64 µM

Q: What about the TGI [30] of the same molecule?
A: 9.98 µM

Q: And the GI50 [31]?
A: 3.78 µM

Q: What about the TGI [31] of the same molecule?
A: > 100 µM

Q: And the GI50 [32]?
A: 7.35 µM

Q: And the TGI [32]?
A: > 100 µM

Q: And the GI50 [33]?
A: 5.77 µM

Q: What about the TGI [33] of the same molecule?
A: > 100 µM

Q: And the GI50 [34]?
A: 5.2 µM

Q: And the TGI [34]?
A: 54.8 µM

Q: What about the GI50 [35] of the same molecule?
A: 9.6 µM

Q: What about the TGI [35] of the same molecule?
A: 86.7 µM

Q: And the GI50 [36]?
A: 3.52 µM

Q: What about the TGI [36] of the same molecule?
A: 56.4 µM

Q: And the GI50 [37]?
A: 47 µM

Q: What about the TGI [37] of the same molecule?
A: > 100 µM

Q: And the GI50 [38]?
A: 3.46 µM

Q: And the TGI [38]?
A: > 100 µM

Q: What about the GI50 [39] of the same molecule?
A: 1.56 µM

Q: And the TGI [39]?
A: > 100 µM

Q: What about the GI50 [40] of the same molecule?
A: 1.24 µM

Q: What about the TGI [40] of the same molecule?
A: 4.48 µM

Q: And the GI50 [41]?
A: 1.25 µM

Q: What about the TGI [41] of the same molecule?
A: > 100 µM

Q: And the GI50 [42]?
A: 5.24 µM

Q: And the TGI [42]?
A: > 100 µM

Q: What about the GI50 [43] of the same molecule?
A: 3.78 µM

Q: And the TGI [43]?
A: 27.5 µM

Q: What about the GI50 [44] of the same molecule?
A: 3.14 µM

Q: And the TGI [44]?
A: 9.79 µM

Q: What about the GI50 [45] of the same molecule?
A: 2.2 µM

Q: And the TGI [45]?
A: 7.49 µM

Q: What about the GI50 [46] of the same molecule?
A: 8.07 µM

Q: What about the TGI [46] of the same molecule?
A: > 100 µM

Q: And the GI50 [47]?
A: 3.93 µM

Q: And the TGI [47]?
A: 28.6 µM

Q: What about the GI50 [48] of the same molecule?
A: 3.21 µM

Q: And the TGI [48]?
A: 13.4 µM

Q: What about the GI50 [49] of the same molecule?
A: 23 µM

Q: What about the TGI [49] of the same molecule?
A: > 100 µM

Q: What about the GI50 [50] of the same molecule?
A: 3.71 µM

Q: And the TGI [50]?
A: 28.1 µM

Q: And the GI50 [51]?
A: 9.93 µM

Q: What about the TGI [51] of the same molecule?
A: > 100 µM

Q: And the GI50 [52]?
A: 3.35 µM

Q: What about the TGI [52] of the same molecule?
A: > 100 µM

Q: And the GI50 [53]?
A: 6.37 µM

Q: What about the TGI [53] of the same molecule?
A: > 100 µM

Q: What about the GI50 [54] of the same molecule?
A: 3.81 µM

Q: What about the TGI [54] of the same molecule?
A: > 100 µM

Q: And the GI50 [55]?
A: 1.05 µM

Q: And the TGI [55]?
A: 7.07 µM

Q: And the GI50 [56]?
A: 6.01 µM

Q: And the TGI [56]?
A: 86.7 µM
